The values that follow come from paper PMC7180638, “Synthesis of Pyrrolidine Monocyclic Analogues of Pochonicine and Its Stereoisomers: Pursuit of Simplified Structures and Potent β-N-Acetylhexosaminidase Inhibition” (Molecules, 2020).

Type in all cases: biochemical
The target of assay [1] is T1, α-Mannosidase (Jack bean) (Canavalia ensiformis, UniProt C0HJB3).
T1 construct: purchased Sigma-Aldrich Chemical Co
T1 sequence (C0HJB3 1-981): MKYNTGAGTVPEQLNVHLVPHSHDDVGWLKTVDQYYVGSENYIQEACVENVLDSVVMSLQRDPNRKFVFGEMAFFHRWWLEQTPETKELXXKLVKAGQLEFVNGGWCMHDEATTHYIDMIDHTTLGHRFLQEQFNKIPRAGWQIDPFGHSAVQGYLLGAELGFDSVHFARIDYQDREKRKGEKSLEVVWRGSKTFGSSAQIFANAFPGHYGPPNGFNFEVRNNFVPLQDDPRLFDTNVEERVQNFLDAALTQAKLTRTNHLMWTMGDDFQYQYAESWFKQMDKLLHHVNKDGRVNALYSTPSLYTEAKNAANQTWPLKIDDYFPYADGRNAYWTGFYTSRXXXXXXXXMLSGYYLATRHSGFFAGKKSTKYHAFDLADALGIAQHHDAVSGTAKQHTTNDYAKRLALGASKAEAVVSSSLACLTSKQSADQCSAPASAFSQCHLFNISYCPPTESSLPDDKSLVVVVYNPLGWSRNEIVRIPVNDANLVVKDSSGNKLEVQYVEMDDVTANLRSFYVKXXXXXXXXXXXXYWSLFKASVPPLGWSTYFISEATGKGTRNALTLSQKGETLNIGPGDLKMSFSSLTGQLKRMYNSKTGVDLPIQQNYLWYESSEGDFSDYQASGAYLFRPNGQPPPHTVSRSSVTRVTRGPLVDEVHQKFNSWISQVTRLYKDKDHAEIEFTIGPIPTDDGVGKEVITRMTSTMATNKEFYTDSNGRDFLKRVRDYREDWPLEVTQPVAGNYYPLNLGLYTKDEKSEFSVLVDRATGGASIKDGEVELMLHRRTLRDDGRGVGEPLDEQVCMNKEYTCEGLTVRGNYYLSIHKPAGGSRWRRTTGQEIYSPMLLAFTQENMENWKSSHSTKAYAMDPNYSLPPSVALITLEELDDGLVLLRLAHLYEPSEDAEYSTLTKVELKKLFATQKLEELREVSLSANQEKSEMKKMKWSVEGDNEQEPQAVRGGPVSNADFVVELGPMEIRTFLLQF
Kind of assay: α-Mannosidase (Jack bean) inhibition. The protocol:
(§1) With rat intestinal maltase as an exception, other enzymes were purchased from Sigma-Aldrich Chemical Co. (St. Louis, MO, USA). Brush border membranes prepared from rat small intestine according to the method of Kessler et al. were assayed at pH 6.8 for rat intestinal maltase using maltose. The released D-glucose was determined colorimetrically using the Glucose CII-test Wako (Wako Pure Chemical Ind.; Osaka, Japan). Other glycosidase activities were determined using an appropriate p-nitrophenyl glycoside as substrate in a buffer solution at the optimal pH value of each enzyme. The reaction was stopped by adding 400 mM Na2CO3. The released p-nitrophenol was measured spectrometrically at 400 nm.

The target of assay [2] is T2, β-Galactosidase (Bovine liver) (Bos taurus, UniProt F1MNT6).
T2 sequence (F1MNT6 1-469): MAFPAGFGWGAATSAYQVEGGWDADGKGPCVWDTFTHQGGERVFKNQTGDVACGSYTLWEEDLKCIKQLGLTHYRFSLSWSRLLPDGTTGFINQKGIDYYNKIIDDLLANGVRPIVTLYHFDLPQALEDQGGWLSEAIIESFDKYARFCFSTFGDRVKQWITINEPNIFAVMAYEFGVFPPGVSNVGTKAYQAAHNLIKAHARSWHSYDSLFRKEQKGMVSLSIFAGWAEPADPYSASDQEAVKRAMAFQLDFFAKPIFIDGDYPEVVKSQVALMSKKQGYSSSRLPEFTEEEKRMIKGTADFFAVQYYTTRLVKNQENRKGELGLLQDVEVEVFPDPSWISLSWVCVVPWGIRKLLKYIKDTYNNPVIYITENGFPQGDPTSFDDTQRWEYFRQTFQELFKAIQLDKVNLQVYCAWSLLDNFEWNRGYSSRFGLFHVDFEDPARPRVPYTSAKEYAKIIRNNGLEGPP
Kind of assay: β-Galactosidase (bovine liver) inhibition. The protocol: as §1

The target in assay [3] is α-L-Rhamnosidase (P. decumbens). Kind of assay: α-L-Rhamnosidase (P. decumbens) inhibition. The protocol: as §1
The target of assay [4] is T3, α-L-Fucosidase (Bovine kidney) (Bos taurus, UniProt Q2KIM0).
T3 construct: purchased Sigma-Aldrich Chemical Co; host or cells: bovine kidney
T3 sequence (Q2KIM0 23-468): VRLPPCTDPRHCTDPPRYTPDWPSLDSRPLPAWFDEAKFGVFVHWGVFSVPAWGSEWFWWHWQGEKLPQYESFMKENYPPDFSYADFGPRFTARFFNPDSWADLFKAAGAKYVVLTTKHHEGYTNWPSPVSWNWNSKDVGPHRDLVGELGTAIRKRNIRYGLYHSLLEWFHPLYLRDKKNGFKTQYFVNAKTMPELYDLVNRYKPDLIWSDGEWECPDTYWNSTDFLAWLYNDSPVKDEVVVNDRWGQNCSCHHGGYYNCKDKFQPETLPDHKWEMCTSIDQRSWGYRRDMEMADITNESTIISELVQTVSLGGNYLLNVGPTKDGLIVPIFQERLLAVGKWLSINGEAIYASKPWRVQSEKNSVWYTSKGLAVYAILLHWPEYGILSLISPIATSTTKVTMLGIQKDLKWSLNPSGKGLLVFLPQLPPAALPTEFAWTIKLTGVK
In words: α-L-Fucosidase (bovine kidney) inhibition. The protocol: as §1

In assay [5] the target is T4, Amyloglucosidase (A. niger) (Aspergillus niger, UniProt P69328).
T4 construct: purchased Sigma-Aldrich Chemical Co
T4 sequence (P69328 25-640): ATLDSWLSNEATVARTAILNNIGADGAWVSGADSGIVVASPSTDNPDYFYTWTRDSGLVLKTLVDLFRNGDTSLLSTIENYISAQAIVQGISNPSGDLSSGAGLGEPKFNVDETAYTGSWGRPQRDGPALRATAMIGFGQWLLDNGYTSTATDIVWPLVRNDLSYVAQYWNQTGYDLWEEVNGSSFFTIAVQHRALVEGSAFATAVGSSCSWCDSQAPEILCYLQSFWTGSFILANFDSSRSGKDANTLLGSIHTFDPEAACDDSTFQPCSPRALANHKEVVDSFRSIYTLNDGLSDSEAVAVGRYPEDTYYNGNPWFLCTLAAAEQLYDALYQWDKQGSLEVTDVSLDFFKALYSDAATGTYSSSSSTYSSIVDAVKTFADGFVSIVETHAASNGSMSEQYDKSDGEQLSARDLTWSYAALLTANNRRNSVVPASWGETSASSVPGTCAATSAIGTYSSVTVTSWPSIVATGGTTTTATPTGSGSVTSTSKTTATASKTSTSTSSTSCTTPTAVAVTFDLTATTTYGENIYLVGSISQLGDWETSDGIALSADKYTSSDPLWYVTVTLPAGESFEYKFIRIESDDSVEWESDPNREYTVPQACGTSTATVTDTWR
In words: Amyloglucosidase (A. niger) inhibition. How it is done: as §1

The target in assay [6] is β-Glucosidase (Bovine liver). Kind of assay: β-Glucosidase (bovine liver) inhibition. How it is done:
as §1

The target of assay [7] is β-N-Acetylhexosaminidase (Bovine liver). In words: β-N-Acetylhexosaminidase (bovine liver) inhibition. As to conditions: for pIC50: read-out: IC50. How it is done:
as §1

The target of assay [8] is T5, β-Glucuronidase (E. coli) (Escherichia coli, UniProt P05804).
T5 construct: purchased Sigma-Aldrich Chemical Co
T5 sequence (P05804 whole entry): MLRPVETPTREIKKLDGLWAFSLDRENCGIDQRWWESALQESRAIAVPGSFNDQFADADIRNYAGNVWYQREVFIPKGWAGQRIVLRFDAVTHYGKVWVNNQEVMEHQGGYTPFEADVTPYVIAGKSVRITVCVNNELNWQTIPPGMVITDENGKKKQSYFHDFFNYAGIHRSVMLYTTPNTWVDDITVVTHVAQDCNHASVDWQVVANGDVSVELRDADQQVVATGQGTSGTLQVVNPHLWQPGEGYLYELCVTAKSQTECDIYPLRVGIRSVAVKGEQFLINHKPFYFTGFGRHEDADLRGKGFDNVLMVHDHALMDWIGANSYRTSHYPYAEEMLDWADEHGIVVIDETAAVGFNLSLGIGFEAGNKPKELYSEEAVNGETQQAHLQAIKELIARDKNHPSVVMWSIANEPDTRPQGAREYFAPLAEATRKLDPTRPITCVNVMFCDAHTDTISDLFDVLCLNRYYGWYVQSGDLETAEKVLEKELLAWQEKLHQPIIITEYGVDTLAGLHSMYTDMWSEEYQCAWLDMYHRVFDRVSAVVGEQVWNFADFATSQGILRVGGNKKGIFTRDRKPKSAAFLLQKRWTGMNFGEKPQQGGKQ
Kind of assay: β-Glucuronidase (E. coli) inhibition. How it is done: as §1

Assay [9] concerns the target α-Glucosidase (Yeast) (Saccharomyces cerevisiae, UniProt P53341). Kind of assay: α-Glucosidase (yeast) inhibition. The protocol:
as §1

Setting [10] is: 1000 μM, read-out: Inhibition % at 1000 μM.
[11] abbreviates: β-N-Acetylhexosaminidase (β-GlcNAcase).
Setting [12] is: read-out: Inhibition % at 1000 μM.
[13] abbreviates: α-Glucosidase, Yeast, read-out: IC50.

pIC50: −log10 of the molar value. Counter-ions that a name gives are not always drawn. Like-named read-outs stand apart in the source and are kept apart here.

Chain of α-Glucosidase (Yeast) (P53341 whole entry): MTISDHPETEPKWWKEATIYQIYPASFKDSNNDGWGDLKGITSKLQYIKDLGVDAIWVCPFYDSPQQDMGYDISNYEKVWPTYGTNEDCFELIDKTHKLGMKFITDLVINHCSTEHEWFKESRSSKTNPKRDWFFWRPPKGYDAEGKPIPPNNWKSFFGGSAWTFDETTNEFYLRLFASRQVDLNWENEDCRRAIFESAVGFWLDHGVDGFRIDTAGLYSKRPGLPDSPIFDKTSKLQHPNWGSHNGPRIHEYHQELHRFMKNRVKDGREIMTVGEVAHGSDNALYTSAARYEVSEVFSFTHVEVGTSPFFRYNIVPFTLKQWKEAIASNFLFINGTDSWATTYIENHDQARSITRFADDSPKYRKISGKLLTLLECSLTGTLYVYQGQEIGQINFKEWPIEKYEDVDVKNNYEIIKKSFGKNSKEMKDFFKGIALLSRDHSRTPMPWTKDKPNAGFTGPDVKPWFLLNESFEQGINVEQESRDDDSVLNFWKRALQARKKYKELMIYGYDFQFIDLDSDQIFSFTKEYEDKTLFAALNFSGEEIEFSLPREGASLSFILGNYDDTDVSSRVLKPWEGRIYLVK

On to `CC(=O)NC[C@@H]1N[C@H](CO)[C@@H](O)[C@H]1O` [H-10, 1-N-acetylamino-2,5-imino-1,2,5-trideoxy-L-allitol hydrochloride], for which the inhibition at 1000 µM is 9.5% in assay [1] (setting [10]); below 50% in [1] (read-out: IC50); 3.6% in assay [2] (setting [10]); below 50% in [2] (read-out: IC50); 22.3% in assay [4] (setting [10]); below 50% in assay [4] (read-out: IC50). Besides, the inhibition at 1000 µM in [5] (setting [10]) was 8.3%; in assay [5] (read-out: IC50), below 50%; in assay [8] (setting [10]), 0%; in assay [8] (read-out: IC50) it was below 50%; in assay [9] (setting [12]), 0%; in assay [9] (setting [13]), below 50%. For the same compound, the IC50 entry in [3], in [6] and in [7] (setting [11]) was “NI (No Inhibition (less than 50% at 1000 μM))” in each case. Also, the “Inhibition % at 1000 μM” value is 7.7% in assay [3]; 1.7% in assay [6]; 33.7% in assay [7] (β-N-Acetylhexosaminidase, 1000 μM).

In the case of `CC(=O)NC[C@H]1N[C@@H](CO)[C@@H](O)[C@@H]1O` [E-10a, 1-N-acetylamino-2,5-imino-1,2,5-trideoxy-D-glucitol hydrochloride], the inhibition at 1000 µM in assay [1] (setting [10]) is 0.7%; in assay [1] (read-out: IC50), below 50%; in assay [2] (setting [10]), 4.9%; in [2] (read-out: IC50), below 50%; in [4] (setting [10]) it was 41.7%; in [4] (read-out: IC50), below 50%. Moreover, the inhibition at 1000 µM in assay [5] (setting [10]) is 4%; in assay [5] (read-out: IC50) it was below 50%; in assay [8] (setting [10]), 0%; in [8] (read-out: IC50) it was below 50%; in assay [9] (setting [12]), 0%; in assay [9] (setting [13]), below 50%. In addition, the IC50 result in [3] and in assay [6] was “NI (No Inhibition (less than 50% at 1000 μM))” throughout. Besides, the “Inhibition % at 1000 μM” value in assay [3] is reported as 11.8%; in assay [6] it was 4.1%. In addition, the pIC50 in assay [7] (setting [11]) is 4.02.

Turning to `CC(=O)NC[C@@H]1N[C@@H](CO)[C@H](O)[C@H]1O` [A-10, 1-N-acetylamino-2,5-imino-1,2,5-trideoxy-L-mannitol hydrochloride], the inhibition at 1000 µM was 0% in [1] (setting [10]); below 50% in assay [1] (read-out: IC50); 1.6% in assay [2] (setting [10]); below 50% in assay [2] (read-out: IC50); 0% in assay [4] (setting [10]); below 50% in assay [4] (read-out: IC50). Moreover, the inhibition at 1000 µM in assay [5] (setting [10]) was 5.5%; in assay [5] (read-out: IC50), below 50%; in assay [8] (setting [10]) it was 0%; in [8] (read-out: IC50) it was below 50%; in assay [9] (setting [12]) it was 0.5%; in assay [9] (setting [13]), below 50%. In addition, the IC50 entry in assay [3] and in assay [6] was “NI (No Inhibition (less than 50% at 1000 μM))” in each case. Also, the results for the “Inhibition % at 1000 μM” value in [3] and in [6] were 10.1% and 2.0%, respectively. Moreover, the pIC50 in [7] (setting [11]) is 3.03.

For `CC(=O)NC[C@H]1N[C@H](CO)[C@H](O)[C@H]1O` [F-10b, 1-N-acetylamino-2,5-imino-1,2,5-trideoxy-D-iditol hydrochloride], the inhibition at 1000 µM is 1.6% in [1] (setting [10]); below 50% in [1] (read-out: IC50); 4.2% in assay [2] (setting [10]); below 50% in assay [2] (read-out: IC50); 3.9% in assay [4] (setting [10]); below 50% in [4] (read-out: IC50). Moreover, the inhibition at 1000 µM in assay [5] (setting [10]) was 5.7%; in assay [5] (read-out: IC50), below 50%; in assay [8] (setting [10]), 0%; in assay [8] (read-out: IC50), below 50%; in assay [9] (setting [12]), 0%; in [9] (setting [13]), below 50%. For the same compound, the IC50 result in [3] and in assay [6] was “NI (No Inhibition (less than 50% at 1000 μM))” throughout. In addition, the “Inhibition % at 1000 μM” value in assay [3] amounted to 3.0%; in assay [6], 0%. Further, in [7] (setting [11]), the pIC50 was 3.19.

The pIC50 is −log10 of the IC50, conventionally taken in molar units.
